Like-named read-outs stand apart in the source and are kept apart here.
Experiments:
[1] = tested on: D. melanogaster BII cell line (expresses the ecdysteroid receptor complex EcR-USP); assay: Drosophila melanogaster BII cell line bioassay (turbidometric; agonist and antagonist versions); settings: for EC50: read-out: EC50 (M), BII bioassay results
[2] = target: wild-type Aedes aegypti EcR (AaEcR; GAL4-EcR DEF with VP16-RXR-USP chimera) (Aedes aegypti, UniProt P49880); assay: Two-hybrid gene switch assay, luciferase reporter, wild-type AaEcR, mouse NIH3T3 cells; type: cell-based; settings: read-out: EC50
[3] = target: wild-type Drosophila melanogaster EcR (DmEcR; GAL4-EcR DEF with VP16-RXR-USP chimera) (Drosophila melanogaster, UniProt P34021); assay: Two-hybrid gene switch assay, luciferase reporter, wild-type DmEcR, mouse NIH3T3 cells; type: cell-based
[4] = target: BmEcR (GAL4-EcR DEF with VP16-RXR-USP chimera) (Bombyx mori, UniProt P49881); assay: Two-hybrid gene switch assay, luciferase reporter, BmEcR, mouse NIH3T3 cells; type: cell-based; settings: read-out: EC50
[5] = target: T1, MsEcR (GAL4-EcR DEF with VP16-RXR-USP chimera) (Manduca sexta, UniProt P49883); assay: Two-hybrid gene switch assay, luciferase reporter, MsEcR, mouse NIH3T3 cells
T1 sequence (P49883 1-556): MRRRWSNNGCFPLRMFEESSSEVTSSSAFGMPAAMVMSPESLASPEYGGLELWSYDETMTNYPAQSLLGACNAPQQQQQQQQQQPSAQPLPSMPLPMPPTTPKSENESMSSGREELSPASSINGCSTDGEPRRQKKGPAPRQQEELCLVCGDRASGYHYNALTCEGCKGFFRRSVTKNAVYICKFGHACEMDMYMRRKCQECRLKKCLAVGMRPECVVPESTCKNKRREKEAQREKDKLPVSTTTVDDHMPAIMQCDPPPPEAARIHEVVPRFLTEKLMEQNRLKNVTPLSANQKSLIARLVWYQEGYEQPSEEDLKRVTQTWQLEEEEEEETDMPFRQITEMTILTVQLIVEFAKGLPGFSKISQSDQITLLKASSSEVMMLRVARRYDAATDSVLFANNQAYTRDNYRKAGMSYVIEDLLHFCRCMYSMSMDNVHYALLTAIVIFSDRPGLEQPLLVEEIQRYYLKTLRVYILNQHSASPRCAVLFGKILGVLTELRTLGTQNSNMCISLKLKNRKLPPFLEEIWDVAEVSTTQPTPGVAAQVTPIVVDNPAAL
T1 sequence (P28702 1-533 partner): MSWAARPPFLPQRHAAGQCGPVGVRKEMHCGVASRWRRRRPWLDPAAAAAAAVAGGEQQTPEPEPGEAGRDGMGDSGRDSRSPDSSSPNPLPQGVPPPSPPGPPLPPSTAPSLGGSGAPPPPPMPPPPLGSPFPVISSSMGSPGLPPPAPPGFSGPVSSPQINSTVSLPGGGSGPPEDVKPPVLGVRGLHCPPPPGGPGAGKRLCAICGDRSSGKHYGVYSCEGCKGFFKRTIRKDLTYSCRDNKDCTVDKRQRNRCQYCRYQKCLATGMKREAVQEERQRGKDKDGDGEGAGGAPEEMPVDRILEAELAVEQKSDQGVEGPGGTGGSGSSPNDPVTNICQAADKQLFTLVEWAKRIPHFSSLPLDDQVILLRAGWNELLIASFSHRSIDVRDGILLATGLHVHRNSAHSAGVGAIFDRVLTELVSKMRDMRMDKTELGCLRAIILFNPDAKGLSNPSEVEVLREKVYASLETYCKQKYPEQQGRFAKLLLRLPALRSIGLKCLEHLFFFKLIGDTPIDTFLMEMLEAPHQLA

[6] = target: T2, BaEcR (GAL4-EcR DEF with VP16-RXR-USP chimera) (Bemisia tabaci, UniProt A0A6M3RDR8); assay: Two-hybrid gene switch assay, luciferase reporter, BaEcR, mouse NIH3T3 cells
T2 sequence (A0A6M3RDR8 115-530): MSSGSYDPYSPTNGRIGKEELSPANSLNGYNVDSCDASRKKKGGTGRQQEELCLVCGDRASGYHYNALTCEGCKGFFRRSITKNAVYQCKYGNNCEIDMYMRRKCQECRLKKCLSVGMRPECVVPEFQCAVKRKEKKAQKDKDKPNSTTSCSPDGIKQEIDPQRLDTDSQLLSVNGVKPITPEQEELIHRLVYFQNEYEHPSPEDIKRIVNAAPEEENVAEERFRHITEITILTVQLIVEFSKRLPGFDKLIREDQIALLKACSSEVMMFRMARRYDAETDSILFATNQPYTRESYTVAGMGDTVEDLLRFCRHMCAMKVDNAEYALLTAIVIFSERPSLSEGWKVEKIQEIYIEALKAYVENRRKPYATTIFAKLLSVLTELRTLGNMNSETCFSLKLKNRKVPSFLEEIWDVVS
T2 sequence (P28702 1-533 partner): T1 sequence (P28702 1-533 partner)

[7] = tested on: NcEcR (GAL4-EcR DEF with VP16-RXR partner); assay: Two-hybrid gene switch assay, luciferase reporter, NcEcR, mouse NIH3T3 cells; settings: FIG. 16, GAL4-EcR (DEF)
[8] = target: T3, TmEcR (GAL4-EcR DEF with VP16-RXR partner) (Tenebrio molitor, UniProt O02035); assay: Two-hybrid gene switch assay, luciferase reporter, TmEcR, mouse NIH3T3 cells
T3 sequence (O02035 194-491): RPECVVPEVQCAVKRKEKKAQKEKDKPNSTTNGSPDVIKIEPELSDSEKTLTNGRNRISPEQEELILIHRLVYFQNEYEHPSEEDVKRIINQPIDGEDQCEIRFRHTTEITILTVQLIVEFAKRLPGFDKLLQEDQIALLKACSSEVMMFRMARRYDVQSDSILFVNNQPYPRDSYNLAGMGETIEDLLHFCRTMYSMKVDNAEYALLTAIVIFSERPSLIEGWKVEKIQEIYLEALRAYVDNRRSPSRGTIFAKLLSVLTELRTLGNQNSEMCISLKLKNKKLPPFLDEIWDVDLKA
T3 sequence (P28704 1-520 partner): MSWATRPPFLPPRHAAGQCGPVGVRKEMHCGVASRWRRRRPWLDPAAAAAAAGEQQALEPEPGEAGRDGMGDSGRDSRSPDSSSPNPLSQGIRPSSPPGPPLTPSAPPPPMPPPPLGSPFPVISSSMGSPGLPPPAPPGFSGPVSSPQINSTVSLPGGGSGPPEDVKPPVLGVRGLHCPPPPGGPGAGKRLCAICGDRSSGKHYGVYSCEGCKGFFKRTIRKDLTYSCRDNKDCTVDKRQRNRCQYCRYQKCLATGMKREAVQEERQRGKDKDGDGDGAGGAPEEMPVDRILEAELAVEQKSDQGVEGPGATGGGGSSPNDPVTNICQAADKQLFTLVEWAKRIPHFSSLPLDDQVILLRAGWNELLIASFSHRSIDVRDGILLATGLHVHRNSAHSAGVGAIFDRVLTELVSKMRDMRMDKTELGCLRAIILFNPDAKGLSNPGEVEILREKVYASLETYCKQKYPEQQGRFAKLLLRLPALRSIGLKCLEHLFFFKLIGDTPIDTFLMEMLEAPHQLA

[9] = target: T4, AmaEcR (GAL4-EcR DEF with VP16-RXR-USP chimera) (Amblyomma americanum, UniProt O44338); assay: Two-hybrid gene switch assay, luciferase reporter, AmaEcR, mouse NIH3T3 cells
T4 sequence (O44338 255-570): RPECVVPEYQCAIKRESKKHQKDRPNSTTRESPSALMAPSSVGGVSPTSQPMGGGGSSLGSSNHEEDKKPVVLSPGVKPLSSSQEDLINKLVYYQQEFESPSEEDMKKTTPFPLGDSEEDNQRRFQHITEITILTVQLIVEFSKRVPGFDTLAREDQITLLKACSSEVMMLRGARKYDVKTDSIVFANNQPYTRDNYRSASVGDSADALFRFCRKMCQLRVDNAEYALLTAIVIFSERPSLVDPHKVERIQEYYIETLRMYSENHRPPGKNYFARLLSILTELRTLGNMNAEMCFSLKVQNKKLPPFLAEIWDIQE
T4 sequence (P28702 1-533 partner): T1 sequence (P28702 1-533 partner)

[10] = D. melanogaster BII cell line, turbidometric
[11] = EC50, FIG. 14A/14B, GAL4-EcR(DEF) with VP16-RXR-USP chimera
[12] = EC50, FIG. 16, GAL4-EcR (DEF) / VP16-RXR-USP chimera

wild-type Drosophila melanogaster EcR (DmEcR; GAL4-EcR DEF with VP16-RXR-USP chimera), sequence (P34021 with tags, fused parts or gaps limits assumed): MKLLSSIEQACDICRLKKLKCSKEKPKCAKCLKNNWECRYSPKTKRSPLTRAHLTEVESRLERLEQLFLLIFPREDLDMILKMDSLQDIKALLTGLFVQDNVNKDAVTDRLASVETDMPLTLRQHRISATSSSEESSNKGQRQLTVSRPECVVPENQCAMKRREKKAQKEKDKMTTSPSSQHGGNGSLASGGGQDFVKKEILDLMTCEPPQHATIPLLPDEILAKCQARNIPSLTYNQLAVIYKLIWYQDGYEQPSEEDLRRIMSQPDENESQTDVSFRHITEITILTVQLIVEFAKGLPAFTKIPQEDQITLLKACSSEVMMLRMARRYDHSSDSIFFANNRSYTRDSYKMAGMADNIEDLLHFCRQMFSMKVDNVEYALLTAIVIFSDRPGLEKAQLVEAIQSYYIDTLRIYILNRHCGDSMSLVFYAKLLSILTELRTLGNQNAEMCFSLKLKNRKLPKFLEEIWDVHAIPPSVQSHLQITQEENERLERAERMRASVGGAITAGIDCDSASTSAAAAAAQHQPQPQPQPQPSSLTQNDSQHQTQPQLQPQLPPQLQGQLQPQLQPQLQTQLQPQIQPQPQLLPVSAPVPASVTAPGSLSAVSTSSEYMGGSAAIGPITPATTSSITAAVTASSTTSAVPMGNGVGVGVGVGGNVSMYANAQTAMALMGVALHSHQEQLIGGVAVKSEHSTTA
wild-type Aedes aegypti EcR (AaEcR; GAL4-EcR DEF with VP16-RXR-USP chimera), sequence (P49880 with tags, fused parts or gaps limits assumed, change not shown): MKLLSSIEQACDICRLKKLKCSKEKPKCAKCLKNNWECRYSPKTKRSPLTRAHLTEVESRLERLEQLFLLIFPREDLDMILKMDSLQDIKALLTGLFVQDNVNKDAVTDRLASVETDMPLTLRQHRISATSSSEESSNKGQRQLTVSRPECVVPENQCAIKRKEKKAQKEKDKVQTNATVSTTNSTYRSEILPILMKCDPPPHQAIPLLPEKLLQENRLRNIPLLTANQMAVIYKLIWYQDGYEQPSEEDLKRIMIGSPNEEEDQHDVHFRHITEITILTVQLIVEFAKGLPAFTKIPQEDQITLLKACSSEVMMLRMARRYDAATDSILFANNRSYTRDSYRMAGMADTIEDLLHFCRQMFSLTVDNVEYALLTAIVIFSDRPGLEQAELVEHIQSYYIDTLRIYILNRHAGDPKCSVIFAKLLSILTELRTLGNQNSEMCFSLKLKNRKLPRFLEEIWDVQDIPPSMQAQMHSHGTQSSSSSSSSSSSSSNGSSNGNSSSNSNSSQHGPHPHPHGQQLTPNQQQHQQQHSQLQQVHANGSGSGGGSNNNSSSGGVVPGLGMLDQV
BmEcR (GAL4-EcR DEF with VP16-RXR-USP chimera), sequence (P49881 other isoform, or with tags, fused parts or gaps, change not shown): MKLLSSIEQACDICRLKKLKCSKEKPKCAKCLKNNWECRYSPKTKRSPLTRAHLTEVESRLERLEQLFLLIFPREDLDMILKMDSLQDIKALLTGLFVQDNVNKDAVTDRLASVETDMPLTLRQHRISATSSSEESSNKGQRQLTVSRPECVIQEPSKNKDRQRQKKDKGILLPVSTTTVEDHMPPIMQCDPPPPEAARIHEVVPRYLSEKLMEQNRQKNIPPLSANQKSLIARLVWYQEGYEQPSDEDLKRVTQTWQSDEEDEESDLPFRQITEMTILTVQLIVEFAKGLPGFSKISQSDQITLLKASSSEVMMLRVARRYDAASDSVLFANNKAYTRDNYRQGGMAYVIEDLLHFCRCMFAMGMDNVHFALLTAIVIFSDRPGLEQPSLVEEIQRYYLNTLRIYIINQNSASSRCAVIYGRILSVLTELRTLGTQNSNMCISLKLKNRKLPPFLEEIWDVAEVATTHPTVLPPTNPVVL

SMILES: CO[C@H](CCC(C)C)[C@](C)(O)[C@H]1CC[C@@]2(OC)C3=CC(=O)[C@@H]4C[C@@H](O)[C@@H](O)C[C@]4(C)[C@H]3CC[C@]12C [compound 21, ponasterone A, 14,22-dimethyl ether]
- EC50 [1, 10]: 1.7e-07 M

SMILES: CO[C@H]1C[C@@]2(C)[C@@H](C[C@H]1O)C(=O)C=C1[C@@H]2CC[C@]2(C)[C@@H]([C@@](C)(O)C(O)CCC(C)(C)O)CC[C@@]12O (some centres unmarked) [compound 1, 20-hydroxyecdysone, 2-methyl ether]
- EC50 [1, 10]: 1.1e-06 M

SMILES: CCC1(O[C@H](CCC(C)(C)O)[C@](C)(O)C2CC[C@@]3(O)C4=CC(=O)C5C[C@@H](O)[C@@H](O)CC5(C)C4CCC23C)CO1 (stereo partly drawn) [compound 23, 20-hydroxyecdysone, 22-(28R,S)-2′-ethyloxiranyl ether]
- EC50 ([1]; Drosophila melanogaster): 2.2e-05 M

SMILES: CO[C@@]12CCC([C@@](C)(O)[C@H](O)CCC(C)(C)O)C1(C)CCC1C2=CC(=O)C2C[C@@H](O)[C@@H](O)CC21C (some centres unmarked) [compound 3, 20-hydroxyecdysone, 14-methyl ether]
- EC50 ([1]; Drosophila melanogaster): 3.2e-06 M

SMILES: CO[C@H](CCC(C)(C)O)[C@](C)(O)C1CC[C@@]2(OC)C3=CC(=O)C4C[C@@H](O)[C@@H](O)CC4(C)C3CCC12C (some centres unmarked) [compound 13, 20-hydroxyecdysone, 14,22-dimethyl ether]
- EC50 ([1]; Drosophila melanogaster): 2.5e-06 M

SMILES: COC(CCC(C)C)[C@](C)(O)[C@H]1CC[C@@]2(O)C3=CC(=O)[C@@H]4C[C@@H](OC)[C@@H](O)C[C@]4(C)[C@H]3CC[C@]12C (some centres unmarked) [compound 20, ponasterone A, 3,22-dimethyl ether]
- EC50 [1, 10]: 1.2e-08 M

SMILES: CCCO[C@H](CCC(C)(C)O)[C@](C)(O)C1CC[C@@]2(O)C3=CC(=O)C4C[C@@H](O)[C@@H](O)CC4(C)C3CCC12C (some centres unmarked) [compound 6, 20-hydroxyecdysone, 22-n-propyl ether]
- EC50 ([1]; Drosophila melanogaster): 8.3e-07 M

SMILES: CO[C@@]12CC[C@H]([C@@](C)(O)[C@H](O)CCC(C)C)[C@@]1(C)CC[C@H]1C2=CC(=O)[C@@H]2C[C@@H](O)[C@@H](O)C[C@@]21C [compound 17, ponasterone A, 14-methyl ether]
- EC50 [1, 10]: 6e-08 M

SMILES: CO[C@H]1CC2(C)C(C[C@H]1OC)C(=O)C=C1C2CCC2(C)C([C@@](C)(O)[C@@H](CCC(C)(C)O)OC)CC[C@@]12OC (some centres unmarked) [compound 15, 20-hydroxyecdysone, 2,3,14,22-tetramethyl ether]
- EC50 ([1]; Drosophila melanogaster): 9e-05 M

SMILES: CO[C@H](CCC(C)(C)OC)[C@](C)(O)[C@H]1CC[C@@]2(O)C3=CC(=O)[C@@H]4C[C@@H](O)[C@@H](O)C[C@]4(C)[C@H]3CC[C@]12C [compound 14, 20-hydroxyecdysone, 22,25-dimethyl ether]
- EC50 [1, 10]: 1.2e-07 M

SMILES: CC(C)(O)CC[C@@H](OCc1ccccc1)[C@](C)(O)C1CC[C@@]2(O)C3=CC(=O)C4C[C@@H](O)[C@@H](O)CC4(C)C3CCC12C (some centres unmarked) [compound 9, 20-hydroxyecdysone, 22-benzyl ether]
- BII potency relative to 20E [1]: does not decrease 20E potency very much
- EC50 ([1]; Drosophila melanogaster): 2.2e-08 M

SMILES: COC(C)(C)CC[C@@H](O)[C@](C)(O)[C@H]1CC[C@@]2(O)C3=CC(=O)[C@@H]4C[C@@H](O)[C@@H](O)C[C@]4(C)[C@H]3CC[C@]12C [compound 10, 20-hydroxyecdysone-25-methyl ether]
- EC50 [1, 10]: 6e-08 M

SMILES: CO[C@H]1C[C@@]2(C)[C@@H](C[C@H]1O)C(=O)C=C1[C@@H]2CC[C@]2(C)[C@@H]([C@@](C)(O)[C@@H](CCC(C)(C)O)OC)CC[C@@]12O [compound 11, 20-hydroxyecdysone, 2,22-dimethyl ether]
- EC50 [1, 10]: 9.3e-07 M

SMILES: CCCCO[C@H](CCC(C)(C)O)[C@](C)(O)C1CC[C@@]2(O)C3=CC(=O)C4C[C@@H](O)[C@@H](O)CC4(C)C3CCC12C (some centres unmarked) [compound 8, 20-hydroxyecdysone, 22-n-butyl ether]
- EC50 ([1]; Drosophila melanogaster): 1e-07 M

SMILES: CC(=O)C1CCC2(O)C3=CC(=O)C4CC(O)C(O)CC4(C)C3CCC12C (centres unmarked) [poststerone]
- EC50 ([2]; FIG. 14A/14B, GAL4-EcR(DEF) with VP16-RXR-USP chimera): > 33 µM
- EC50 ([2]; FIG. 16, GAL4-EcR (DEF) / VP16-RXR-USP chimera): 10.5 µM
- EC50 [3, 11]: > 33 µM
- EC50 [3, 12]: > 33 µM
- EC50 [4]: > 33 µM
- EC50 ([5]; EC50, FIG. 13A/13B, GAL4-EcR(DEF) with VP16-RXR-USP chimera): > 33 µM
- EC50 ([5]; EC50, FIG. 15, GAL4-EcR (DEF) / VP16-RXR-USP chimera): > 33 µM
- EC50 [6, 11]: > 33 µM
- EC50 [6, 12]: > 33 µM
- EC50 [7]: ~10 µM
- EC50 ([8]; EC50, FIG. 14A/14B, GAL4-EcR(DEF)): > 33 µM
- EC50 ([8]; EC50, FIG. 16, GAL4-EcR (DEF)): > 33 µM
- EC50 [9, 11]: > 33 µM
- EC50 [9, 12]: ~10 µM

From patent US8536354B2, “Steroidal ligands and their use in gene switch modulation” (Intrexon Corporation, priority 2008, dated 2013)
